According to US11072598B2, “Somatostatin modulators and uses thereof” (CRINETICS PHARMACEUTICALS, INC., priority 2017, dated 2021):
Like-named read-outs stand apart in the source and are kept apart here.

Key:
hERG ion channel = target: T1, hERG ion channel (Homo sapiens, UniProt Q12809); experiment: hERG fluorescence polarization assay (Predictor kit); format: binding; settings: tracer displacement, membrane fractions; read-out: hERG inh.
T1 construct: purchased ThermoFisher Scientific PV5365
Experimental: On the day of the assay, various dilutions of test articles of the invention are prepared in assay buffer (Predictor™ hERG Fluorescence Polarization Assay Kit, ThermoFisher Scientific #PV5365) and dilutions are added to membranes fractions that contain the functional hERG ion channel (supplied by the kit). […] Under normal conditions, the tracer binds to the hERG channel and the fluorecence polarization measured is high. […] The concentration of free tracer is measured via fluorescence polarization using parameters prescribed in the kit with a Tecan M1000Pro multiplate reader. […] The fluorescence polarization is plotted versus test article concentration and an IC50 for hERG inhibition is calculated using standard methods. All data manipluations are in GraphPad Prism v6.

hSSTR4 = target: T2, hSSTR4 (Homo sapiens, UniProt P31391); experiment: inhibition of cAMP via hSSTR4; format: cell-based; settings: for EC50: cAMP inhibition, Table C, read-out: hSST4 (EC50); for hSST4/hSST2 (ratio): selectivity for inhibition of cAMP via hSSTR2 vs. hSSTR4
T2 construct: expressed in transfected cells
T2 sequence (P31391 whole entry): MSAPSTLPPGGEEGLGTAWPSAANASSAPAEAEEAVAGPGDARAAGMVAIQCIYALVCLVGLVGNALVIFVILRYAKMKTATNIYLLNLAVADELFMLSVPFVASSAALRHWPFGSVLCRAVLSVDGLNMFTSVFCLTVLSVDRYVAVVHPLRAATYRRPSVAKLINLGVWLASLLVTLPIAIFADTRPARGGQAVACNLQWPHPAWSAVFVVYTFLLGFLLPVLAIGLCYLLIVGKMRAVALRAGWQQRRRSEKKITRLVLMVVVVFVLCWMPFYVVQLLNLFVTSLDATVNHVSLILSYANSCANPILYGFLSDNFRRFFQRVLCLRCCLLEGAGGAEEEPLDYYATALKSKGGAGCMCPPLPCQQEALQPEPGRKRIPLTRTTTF
Text: General overview: All five SSTR subtypes are Gi coupled G-protein coupled receptors (GPCRs) that lead to decreases in intracellular cyclic AMP (cAMP) when activated by an agonist. Therefore, measurement of intracellular cAMP levels can be used to assess whether compounds of the invention are agonists of SSTR subtypes (John Kelly, Troy Stevens, W. Joseph Thompson, and Roland Seifert, Current Protocols in Pharmacology, 2005, 2.2.1-2.2). One example of an intracellular cAMP assay is described below. cAMP assay protocol:
Four days prior to the assay, 5,000 Chinese hamster ovary cells (CHO-K1, ATCC #CCL-61) stably expressing the human somatostatin receptor subtype 2 are plated in each well of a 96-well tissue culture-treated plate in Ham's F12 growth media (ThermoFisher #10-080-CM) supplemented with 10% donor bovine serum (Gemini Bio-Products #100-506), 100 U/mL penicillin; 100 ug/mL streptomycin; 2 mM L-glutamine (Gemini Bio-Products #400-110) and 0.2 mg/mL hygromycin B (GoldBio #31282-04-9). The cells are cultured at 37° C., 5% CO2 and 95% humidity. On the day of the assay, the media is aspirated and the cells are treated with 50 μL of 1.6 μM NKH477 (Sigma #N3290) plus various dilutions of compounds of the invention in assay buffer [1× Hank's Balanced Salt Solution (ThermoFisher #SH3058802), 0.5 mM HEPES pH 7.4, 0.1% bovine serum albumin, 0.2 mM 3-Isobutyl-1-methylxanthine (IBMX, VWR #200002-790)]. The cells are incubated for 20 minutes at 37° C. (the final concentration of the compounds of the invention are typically 0-10,000 nM). The cells are treated with 50 μL of lysis buffer (HRTF cAMP kit, Cisbio). The lysate is transferred to 384-well plates and cAMP detection and visualization antibodies are added and incubated for 1-24 hours at room temperature. The time-resolved fluorescent signal is read with a Tecan M1000Pro multiplate reader. The intracellular cAMP concentrations are calculated by regression to a standard curve and are plotted vs. the concentration of the compounds of the invention and the EC50 of the compounds are calculated using standard methods. All data manipluations are in GraphPad Prism v6.

[1] = target: T3, human somatostatin receptor subtype 2 (Homo sapiens, UniProt P30874); experiment: cAMP functional assay for SSTR2 agonists; format: cell-based
T3 construct: expressed in transfected cells
T3 sequence (P30874 whole entry): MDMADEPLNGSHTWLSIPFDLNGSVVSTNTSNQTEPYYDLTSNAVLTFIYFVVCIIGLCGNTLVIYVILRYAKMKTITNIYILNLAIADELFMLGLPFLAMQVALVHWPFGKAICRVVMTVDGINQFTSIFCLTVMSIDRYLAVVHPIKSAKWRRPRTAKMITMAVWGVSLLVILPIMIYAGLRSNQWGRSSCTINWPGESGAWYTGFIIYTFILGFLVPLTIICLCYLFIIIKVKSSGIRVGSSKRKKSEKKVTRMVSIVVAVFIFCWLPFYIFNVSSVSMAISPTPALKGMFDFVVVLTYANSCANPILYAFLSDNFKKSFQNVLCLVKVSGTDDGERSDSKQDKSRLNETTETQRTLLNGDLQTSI
Method in brief: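 CHO-K1 cells stably expressing human SSTR2 were treated for 20 min at 37 °C with compound plus NKH477 (added as 1.6 μM) in HBSS with IBMX. Intracellular cAMP was measured by HTRF against a standard curve. EC50 values came from concentration-response curves.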

human CYP2D6 isozyme = target: T4, human CYP2D6 isozyme (Homo sapiens, UniProt P10635); experiment: CYP2D6 assay (Vivid CYP2D6 Blue Screening Kit); format: in vitro ADME; settings: CYP450 microsomes, fluorogenic substrate; read-out: CYP2D6 inh.
T4 construct: purchased ThermoFisher Scientific P2972
T4 sequence (P10635 whole entry): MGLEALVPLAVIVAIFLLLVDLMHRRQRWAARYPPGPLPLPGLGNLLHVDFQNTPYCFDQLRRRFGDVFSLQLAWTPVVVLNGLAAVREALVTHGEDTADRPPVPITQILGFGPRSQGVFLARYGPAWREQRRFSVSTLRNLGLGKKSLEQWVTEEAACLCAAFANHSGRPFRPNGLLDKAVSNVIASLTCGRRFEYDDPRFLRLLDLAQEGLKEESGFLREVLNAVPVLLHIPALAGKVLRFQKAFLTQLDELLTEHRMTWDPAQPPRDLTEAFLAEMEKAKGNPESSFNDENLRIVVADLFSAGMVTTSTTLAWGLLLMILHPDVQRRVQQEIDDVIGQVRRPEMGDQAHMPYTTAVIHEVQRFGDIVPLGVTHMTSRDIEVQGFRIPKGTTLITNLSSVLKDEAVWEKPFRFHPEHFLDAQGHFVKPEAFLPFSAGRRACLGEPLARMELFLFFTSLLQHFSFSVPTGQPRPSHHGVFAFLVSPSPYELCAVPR
Experimental: On the day of the assay, various dilutions of test articles of the invention are prepared in assay buffer (Vivid® CYP2D6 Blue Screening Kit, ThermoFisher Scientific #P2972) and dilutions are added to a preparation of CYP450 microsomes expressing the functional human CYP2D6 isozyme (supplied by the kit) and incubated for 15 minutes at 37° C. to allow interactions between the test article of invention and the enzyme in the absence of enzyme turnover. The enzymatic reaction is initiated by addition of the NADPH co-factor in the precense of the fluorogenic substrate. Under normal conditions, this substrate (which is not fluorescent) is cleaved by active CYP2D6 to produce a a fluorescent product. When in the presence of test article, the lack of appearance of the fluorescent product is evidence of inhibition of the CYP2D6 enzyme by the test article. The enzymatic reaction is allowed to proceed for 30 minutes at […] and then terminated by the addition of 0.5 M Tris pH 10.8. The concentration of fluorescent cleavage product is measured using spectroscopic parameters prescribed in the kit with a Tecan M1000Pro multiplate reader. The percent inhibition is calculated based on the fluorescence intensity observed in the presence of the positive control inhibitor, quinidine (Sigma #Q3625), included in each assay. The percent inhibition is plotted versus test article concentration and an IC50 for CYP2D6 inhibition is calculated using standard methods. All data manipluations are in GraphPad Prism v6.

[2] = cAMP inhibition, Table C, read-out: hSST2 (EC50)
[3] = inhibition of cAMP activities via human SST2 receptor (SSTR2), CHO-K1 cells, read-out: EC50

T1 sequence (Q12809 whole entry): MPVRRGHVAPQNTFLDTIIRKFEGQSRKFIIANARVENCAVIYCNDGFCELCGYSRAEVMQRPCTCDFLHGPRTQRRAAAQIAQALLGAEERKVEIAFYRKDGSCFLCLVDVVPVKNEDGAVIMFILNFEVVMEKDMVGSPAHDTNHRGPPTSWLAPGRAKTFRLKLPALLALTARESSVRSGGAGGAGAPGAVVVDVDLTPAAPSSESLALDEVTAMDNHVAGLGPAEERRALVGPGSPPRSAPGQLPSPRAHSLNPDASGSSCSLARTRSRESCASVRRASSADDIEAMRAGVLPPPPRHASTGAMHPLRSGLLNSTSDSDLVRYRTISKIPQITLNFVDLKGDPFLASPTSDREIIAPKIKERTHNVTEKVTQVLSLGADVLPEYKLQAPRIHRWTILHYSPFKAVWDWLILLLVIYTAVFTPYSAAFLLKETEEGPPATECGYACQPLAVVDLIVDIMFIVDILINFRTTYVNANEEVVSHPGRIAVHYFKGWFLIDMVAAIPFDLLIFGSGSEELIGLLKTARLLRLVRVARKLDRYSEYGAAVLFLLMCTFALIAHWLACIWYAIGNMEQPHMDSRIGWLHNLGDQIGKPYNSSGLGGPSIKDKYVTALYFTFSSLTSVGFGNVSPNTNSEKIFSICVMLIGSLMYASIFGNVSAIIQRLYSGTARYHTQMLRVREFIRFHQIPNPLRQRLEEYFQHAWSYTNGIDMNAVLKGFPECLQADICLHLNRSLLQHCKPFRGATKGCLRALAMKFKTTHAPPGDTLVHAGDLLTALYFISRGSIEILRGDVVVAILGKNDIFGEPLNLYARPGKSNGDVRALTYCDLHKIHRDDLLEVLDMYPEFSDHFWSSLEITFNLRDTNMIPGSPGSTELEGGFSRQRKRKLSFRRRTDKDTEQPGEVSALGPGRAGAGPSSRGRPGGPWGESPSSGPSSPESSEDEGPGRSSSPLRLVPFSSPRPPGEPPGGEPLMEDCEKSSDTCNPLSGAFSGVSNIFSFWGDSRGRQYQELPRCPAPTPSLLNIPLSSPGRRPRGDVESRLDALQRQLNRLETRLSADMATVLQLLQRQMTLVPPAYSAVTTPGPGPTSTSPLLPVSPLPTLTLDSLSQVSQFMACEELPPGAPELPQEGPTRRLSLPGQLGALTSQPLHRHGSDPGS

Compound	IC50 (hERG ion channel) [nM]	EC50 (hSSTR4) [nM]	hSST4/hSST2 (ratio) (hSSTR4)	EC50 [1, 2] [nM]	EC50 [1, 3] [nM]	IC50 (human CYP2D6 isozyme) [nM]
Cc1cc(F)cc(-c2cnc(N)c(-c3nc4cc(C#N)ccc4[nH]3)c2N2CCC(N)CC2)c1 [Compound 1-12, 2-[2-amino-4-(4-aminopiperidin-1-yl)-5-(3-fluoro-5-methylphenyl)pyridin-3-yl]-1H-1,3-benzodiazole-5-carbonitrile]	> 5000	14	a (above 50)	0.06	< 10	> 5000
Cc1cc(F)cc(-c2cnc(N)c(-c3nc4cc(Cl)ccc4[nH]3)c2N2CCC(N)CC2)c1 [Compound 1-1, 4-(4-aminopiperidin-1-yl)-3-(5-chloro-1H-1,3-benzodiazol-2-yl)-5-(3-fluoro-5-methylphenyl)pyridin-2-amine]	> 5000	0.7	b (between 15 and 50)	0.03	< 10	> 5000
Cc1cc(F)cc(-c2cncc(-c3nc4cc(C#N)ccc4[nH]3)c2N2CCC(N)CC2)c1 [R^1=H, R^5=H, R^6=5-CN, R^7=H, reference compound]	< 5000	1.2	c (between 2.5 and 15)	0.13	–	> 5000
Cc1cc(F)cc(-c2cnc(N)c(-c3nc4cccc(F)c4[nH]3)c2N2CCC(N)CC2)c1 [Compound 1-11, 4-(4-aminopiperidin-1-yl)-3-(7-fluoro-1H-1,3-benzodiazol-2-yl)-5-(3-fluoro-5-methylphenyl)pyridin-2-amine]	> 5000	0.71	c (between 2.5 and 15)	0.27	< 10	> 5000
Cc1cc(F)cc(-c2cnc(N)c(-c3nc4cc(F)cc(F)c4[nH]3)c2N2CCC(N)CC2)c1 [Compound 1-2, 4-(4-aminopiperidin-1-yl)-3-(5,7-difluoro-1H-1,3-benzodiazol-2-yl)-5-(3-fluoro-5-methylphenyl)pyridin-2-amine]	> 5000	1.3	b (between 15 and 50)	0.05	< 10	> 5000
CNc1ncc(-c2cc(C)cc(F)c2)c(N2CCC(N)CC2)c1-c1nc2cc(F)cc(F)c2[nH]1 [Compound 1-48, 4-(4-aminopiperidin-1-yl)-3-(5,7-difluoro-1H-1,3-benzodiazol-2-yl)-5-(3-fluoro-5-methylphenyl)-N-methylpyridin-2-amine]	> 5000	15	a (above 50)	0.18	< 10	> 5000
